Assay [1] addresses T1, PRMT5 (Homo sapiens, UniProt O14744).
T1 construct: purchased Viva (custom protein)
Nature of the assay: PRMT5 inhibition assay with no cofactor. The class given is biochemical. The conditions noted are these: against PRMT5 with no cofactor; read-out: No Co-factor IC50.

Assay [2] deals with T1, PRMT5. Nature of the assay: PRMT5 inhibition assay with MTA as cofactor. The class given is biochemical. The note with it: against PRMT5 with MTA as cofactor. From the text: The Ki values can be calculated from the IC50 values as described in the Examples section. As detailed in the Examples section, for the assay performed in the presence of SAM, IC50=Ki×1.5 (Ki=IC50/1.5). For the assay performed in the presence of MTA, IC50=Ki×13.5 (Ki=IC50/13.5). Column 6 indicates the ratio between the Ki of compounds in the presence of SAM and the Ki of compounds in the presence of MTA

Assay [3] concerns HAP1 MTAP-intact cell line. Put plainly: SDMA in-cell western assay, HAP1 MTAP-intact. The class given is cell-based. The note with it: Homo sapiens. How it is done: (§1) Table 1 also indicates IC50 values in an MTAP-isogenic cell line pair for exemplary compounds in an SDMA in-cell western assay (columns 7-8). HAP1 MTAP-intact is a cell line in which endogenous levels of MTAP are expressed, and HAP1 MTAP-deleted is an MTAP-null cell line. For Table 1, “a*” and “aa*” indicates an IC50 of <1 μM, “b*” and “bb*” indicates an IC50 equal to or greater than 1 μM but less than 10 μM, and “c*” and “cc*” indicates an IC50 of greater than or equal to 10 μM in the HAP1 MTAP-intact and the HAP1 MTAP-deleted assays, respectively. In column 9, “A*” indicates an IC50 ratio greater than or equal to 10 fold between the IC50 in the HAP1 MTAP-intact cell line and the HAP1 MTAP-deleted cell line; “B*” indicates an IC50 ratio greater than or equal to 3 fold but lower than 10 fold between the IC50 in the HAP1 MTAP-intact cell line and the HAP1 MTAP-deleted cell line; “C*” indicates an IC50 ratio of less than 3 fold between the IC50 in the HAP1 MTAP-intact cell line and the HAP1 MTAP-deleted cell line. Compounds with a ratio in the SDMA in-cell western assay of equal to or greater than 3 fold are considered MTAP-selective.

Assay [4] deals with HAP1 MTAP-deleted cell line. Put plainly: SDMA in-cell western assay, HAP1 MTAP-deleted. The class given is cell-based. The note with it: for IC50: Homo sapiens, HAP1 MTAP-deleted (MTAP-null) cell line; for MTAP Intact/Deleted Ratio: IC50 ratio HAP1 MTAP-intact / HAP1 MTAP-deleted, >=3 fold considered MTAP-selective. The method, then:
as §1

T1 sequence (O14744 whole entry): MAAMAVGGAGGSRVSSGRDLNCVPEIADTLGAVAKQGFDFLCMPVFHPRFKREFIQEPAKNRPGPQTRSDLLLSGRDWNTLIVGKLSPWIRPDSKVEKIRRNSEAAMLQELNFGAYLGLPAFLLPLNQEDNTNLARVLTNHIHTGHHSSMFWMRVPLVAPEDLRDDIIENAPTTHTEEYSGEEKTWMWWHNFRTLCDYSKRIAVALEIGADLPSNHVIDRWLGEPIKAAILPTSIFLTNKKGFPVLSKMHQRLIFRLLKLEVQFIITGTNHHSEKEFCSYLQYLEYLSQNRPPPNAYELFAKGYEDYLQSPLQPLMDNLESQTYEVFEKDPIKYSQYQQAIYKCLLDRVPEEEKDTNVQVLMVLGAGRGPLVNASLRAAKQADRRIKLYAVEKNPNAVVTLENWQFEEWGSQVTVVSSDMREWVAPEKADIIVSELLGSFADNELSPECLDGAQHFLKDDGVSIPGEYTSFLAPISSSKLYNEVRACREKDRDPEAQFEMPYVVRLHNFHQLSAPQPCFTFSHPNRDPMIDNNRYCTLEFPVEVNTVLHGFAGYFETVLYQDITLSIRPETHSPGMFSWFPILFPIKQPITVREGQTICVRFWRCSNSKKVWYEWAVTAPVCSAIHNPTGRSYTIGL
T1 sequence (Q9BQA1 whole entry partner): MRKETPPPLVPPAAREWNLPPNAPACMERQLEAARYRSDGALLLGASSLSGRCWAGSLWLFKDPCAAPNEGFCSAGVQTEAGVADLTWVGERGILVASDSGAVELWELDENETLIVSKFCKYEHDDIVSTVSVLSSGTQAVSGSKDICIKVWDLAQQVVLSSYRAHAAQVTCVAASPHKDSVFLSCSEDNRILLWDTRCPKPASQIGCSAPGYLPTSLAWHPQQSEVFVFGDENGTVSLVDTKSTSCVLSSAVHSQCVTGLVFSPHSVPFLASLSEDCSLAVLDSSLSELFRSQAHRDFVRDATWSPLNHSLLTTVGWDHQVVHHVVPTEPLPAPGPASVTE

The term IC50 denotes the concentration at which inhibition is half-maximal. `CC(=O)N1CC(Nc2cc(C(=O)NCC[C@H]3Cc4ccc(OCc5ocnc5C)cc4CN3)nc(N3CCCCC3)n2)C1` (single isomer, unassigned) [83**]: the IC50 on PRMT5 [1] was 50 to 500 nM; against PRMT5 [2] it was under 50 nM.

For the compound `CC(=O)N1CC(Nc2cc(C(=O)NCC[C@@H]3Cc4ccc(OCc5ocnc5C)cc4CN3)nc(N3CCCCC3)n2)C1` (single isomer, unassigned) [85**], the IC50 was in the range of 500 to 5000 nM on PRMT5 [1] and 50 to 500 nM on PRMT5 [2].

Consider `Cn1nccc1COc1ccc2c(c1)CN[C@H]([C@H](O)CNC(=O)c1ccnc(NC3CCC3)c1)C2` [Compound 14, 2-(cyclobutylamino)-N—((R)-2-hydroxy-2-((S)-7-((1-methyl-1H-pyrazol-5-yl)methoxy)-1,2,3,4-tetrahydroisoquinolin-3-yl)ethyl)isonicotinamide], for which the IC50 was at least 10000 nM in assay [3] and under 1000 nM in assay [4].

As to `Cc1ncoc1COc1ccc2c(c1)CN[C@H]([C@H](O)CNC(=O)c1ccnc(NC3CCC3)c1)C2` [Compound 15, 2-(cyclobutylamino)-N—((R)-2-hydroxy-2-((S)-7-((4-methyloxazol-5-yl)methoxy)-1,2,3,4-tetrahydroisoquinolin-3-yl)ethyl)isonicotinamide], the IC50 in assay [3] was at least 10000 nM; in assay [4] it was under 1000 nM.

With `O=C(NC[C@@H](O)[C@@H]1Cc2ccc(OCc3cnco3)cc2CN1)c1ccnc(NC2CCC2)c1` [Compound 19, 2-(cyclobutylamino)-N—((R)-2-hydroxy-2-((S)-7-(oxazol-5-ylmethoxy)-1,2,3,4-tetrahydroisoquinolin-3-yl)ethyl)isonicotinamide], the results for the IC50 in assay [3] and in assay [4] were at least 10000 nM and 1000 to 10000 nM, respectively.

For `CC(=O)N1CC(Nc2cc(C(=O)NC[C@@H](O)[C@@H]3Cc4ccc(OCc5ocnc5C)cc4CN3)nc(N3CCCCC3)n2)C1` [Compound 22, 6-((1-acetylazetidin-3-yl)amino)-N—((R)-2-hydroxy-2-((S)-7-((4-methyloxazol-5-yl)methoxy)-1,2,3,4-tetrahydroisoquinolin-3-yl)ethyl)-2-(piperidin-1-yl)pyrimidine-4-carboxamide], the IC50 in assay [3] was 1000 to 10000 nM; in assay [4], under 1000 nM.

For the compound `CC(=O)N1CC2(CC(Nc3cc(C(=O)NC[C@@H](O)[C@@H]4Cc5ccc(OCc6ocnc6C)cc5CN4)nc(N4CCCCC4)n3)C2)C1` [Compound 48, 6-[(2-acetyl-2-azaspiro[3.3]heptan-6-yl)amino]-N-[(2R)-2-hydroxy-2-[(3S)-7-[(4-methyloxazol-5-yl)methoxy]-1,2,3,4-tetrahydroisoquinolin-3-yl]ethyl]-2-(1-piperidyl)pyrimidine-4-carboxamide], the IC50 in assay [3] and in assay [4] was under 1000 nM each time.

Regarding `CC(=O)N1CC(Nc2cc(C(=O)NC[C@@H](O)[C@@H]3Cc4ccc(OCc5ocnc5C)cc4CN3)nc(N3CCC(C)CC3)n2)C1` [Compound 62, 6-[(1-acetylazetidin-3-yl)amino]-N-[(2R)-2-hydroxy-2-[(3S)-7-[(4-methyloxazol-5-yl)methoxy]-1,2,3,4-tetrahydroisoquinolin-3-yl]ethyl]-2-(4-methyl-1-piperidyl)pyrimidine-4-carboxamide], the IC50 in assay [3] is 1000 to 10000 nM; in assay [4], under 1000 nM.

In turn, `CC(=O)N1CC(Nc2cc(C(=O)NC[C@H](O)[C@@H]3Cc4ccc(OCc5ocnc5C)cc4CN3)nc(N3CCCCC3)n2)C1` [Compound 64] registered an IC50 in assay [4] of 1000 to 10000 nM.

For the compound `Cc1ncoc1COc1cc2c(cc1F)C[C@@H]([C@H](O)CNC(=O)c1ccnc(NC3CCC3)c1)NC2` [Compound 65, 2-(cyclobutylamino)-N-[(2R)-2-[(3S)-6-fluoro-7-[(4-methyloxazol-5-yl)methoxy]-1,2,3,4-tetrahydroisoquinolin-3-yl]-2-hydroxy-ethyl]pyridine-4-carboxamide], the IC50 in assay [3] was at least 10000 nM; at PRMT5 [1] it was 500 to 5000 nM; in assay [4], under 1000 nM; against PRMT5 [2], under 50 nM. Further, the “MTAP Intact/Deleted Ratio” value in assay [4] was “A* (an IC50 ratio greater than or equal to 10 fold between the IC50 in the HAP1 MTAP-intact cell line and the HAP1 MTAP-deleted cell line)”.

With `COCCN(C)c1cc(C(=O)NC[C@@H](O)[C@@H]2Cc3ccc(OCc4ocnc4C)cc3CN2)cc(NC2CCN(C(C)=O)CC2)n1` [Compound 66], the IC50 was at least 10000 nM in assay [3], 50 to 500 nM on PRMT5 [1], under 1000 nM in assay [4] and under 50 nM at PRMT5 [2]. In addition, the “MTAP Intact/Deleted Ratio” value in assay [4] was “A* (an IC50 ratio greater than or equal to 10 fold between the IC50 in the HAP1 MTAP-intact cell line and the HAP1 MTAP-deleted cell line)”.

Consider `CC(=O)N1CC(Nc2cc(C(=O)NC[C@@H](O)[C@@H]3Cc4ccc(OCc5ocnc5C)cc4CN3)cc(N3CCN(C(C)C)CC3)n2)C1` [Compound 67], for which the IC50 in assay [3] was at least 10000 nM; at PRMT5 [1] it was 50 to 500 nM; in assay [4] it was 1000 to 10000 nM; against PRMT5 [2], under 50 nM. In assay [4], the “MTAP Intact/Deleted Ratio” value is “C* (an IC50 ratio of less than 3 fold between the IC50 in the HAP1 MTAP-intact cell line and the HAP1 MTAP-deleted cell line)”.

For `COCCN(C)c1cc(C(=O)NC[C@@H](O)[C@@H]2Cc3ccc(OCc4ocnc4C)cc3CN2)cc(NC2CC3(CCC3)C2)n1` [Compound 68], the IC50 in assay [3] is 1000 to 10000 nM; at PRMT5 [1] it was 50 to 500 nM; in assay [4], under 1000 nM; against PRMT5 [2], under 50 nM. In assay [4], the “MTAP Intact/Deleted Ratio” value was “A* (an IC50 ratio greater than or equal to 10 fold between the IC50 in the HAP1 MTAP-intact cell line and the HAP1 MTAP-deleted cell line)”.

Take `COCCN(C)c1cc(C(=O)NC[C@@H](O)[C@@H]2Cc3ccc(OCc4ocnc4C)cc3CN2)cc(NC2CN(C(C)=O)C2)n1` [Compound 69]: the IC50 in assay [3] was at least 10000 nM; at PRMT5 [1], 50 to 500 nM; in assay [4], 1000 to 10000 nM; on PRMT5 [2], under 50 nM. Besides, in assay [4], the “MTAP Intact/Deleted Ratio” value was “C* (an IC50 ratio of less than 3 fold between the IC50 in the HAP1 MTAP-intact cell line and the HAP1 MTAP-deleted cell line)”.

For the compound `CCOc1cc(C(=O)N2C3CCC2COC3)ccc1C(=O)NC[C@@H](O)[C@@H]1Cc2ccc(OCc3ccncc3)cc2CN1` [Compound 73, 2-ethoxy-N-[(2R)-2-hydroxy-2-[(3S)-7-(4-pyridylmethoxy)-1,2,3,4-tetrahydroisoquinolin-3-yl]ethyl]-4-(3-oxa-8-azabicyclo[3.2.1]octane-8-carbonyl)benzamide], the values for the IC50 (at PRMT5 [1]; in assay [4]; against PRMT5 [2]) were at least 5000 nM, 1000 to 10000 nM and 50 to 500 nM, respectively.

Regarding `COc1ccc(C(=O)N2CCc3cc(C(=O)NC[C@@H](O)[C@@H]4Cc5ccc(OCc6cnco6)cc5CN4)ccc3C2)cc1` [Compound 74, N-[(2R)-2-hydroxy-2-[(3S)-7-(oxazol-5-ylmethoxy)-1,2,3,4-tetrahydroisoquinolin-3-yl]ethyl]-2-(4-methoxybenzoyl)-3,4-dihydro-1H-isoquinoline-6-carboxamide], the IC50 is 50 to 500 nM on PRMT5 [1], under 1000 nM in assay [4] and under 50 nM against PRMT5 [2].

As for `CCOc1cc(C(=O)N2C3CCC2COC3)ccc1C(=O)NC[C@@H](O)[C@@H]1Cc2ccc(OCc3ccn[nH]3)cc2CN1` [Compound 76, 2-ethoxy-N-[(2R)-2-hydroxy-2-[(3S)-7-(1H-pyrazol-5-ylmethoxy)-1,2,3,4-tetrahydroisoquinolin-3-yl]ethyl]-4-(3-oxa-8-azabicyclo[3.2.1]octane-8-carbonyl)benzamide], the IC50 in assay [3] was at least 10000 nM; on PRMT5 [1], 500 to 5000 nM; against PRMT5 [2], 50 to 500 nM.

In the case of `COc1ccc(C(=O)N2CCc3cc(C(=O)NC[C@@H](O)[C@@H]4Cc5ccc(OCc6ccnn6C)cc5CN4)ccc3C2)cc1` [Compound 77, N-[(2R)-2-hydroxy-2-[(3S)-7-[(2-methylpyrazol-3-yl)methoxy]-1,2,3,4-tetrahydroisoquinolin-3-yl]ethyl]-2-(4-methoxybenzoyl)-3,4-dihydro-1H-isoquinoline-6-carboxamide], the IC50 was 1000 to 10000 nM in assay [3], 500 to 5000 nM at PRMT5 [1] and under 50 nM on PRMT5 [2].

On to `COCCN(C)c1nc(NC2CC3(CCC3)C2)cc(C(=O)NC[C@@H](O)[C@@H]2Cc3ccc(OCc4ocnc4C)cc3CN2)n1` [Compound 80], for which the 50% inhibitory concentration (IC50) in assay [3] was 1000 to 10000 nM; in assay [4] it was under 1000 nM.

Take `Cc1ncoc1COc1ccc2c(c1)CN[C@H]([C@H](O)CNC(=O)c1cc(NC3CC4(CCC4)C3)nc(N3CCN(C(=O)C4CC4)CC3)n1)C2` [Compound 84]: the IC50 at PRMT5 [1] and against PRMT5 [2] was under 50 nM in each case.

Take `Cc1ncoc1COc1ccc2c(c1)CN[C@H]([C@H](O)CNC(=O)c1cc(NC3CC4(CCC4)C3)nc(N3CCN(C(C)C)CC3)n1)C2` [Compound 86]: the IC50 at PRMT5 [1] and on PRMT5 [2] was under 50 nM throughout.

Values taken from US12403137B2, “Compounds and methods of use” (Tango Therapeutics, Inc., priority 2019, dated 2025).
